Reference: ChEMBL document CHEMBL1697781, “Assessment of the health effects of chemicals in humans: II. Construction of an adverse effects database for QSAR modeling” (Curr Drug Discov Technol, 2004)

Tested on: Hepatotoxicity
Assay: FDA HLAED, alkaline phosphatase increase
Settings: human

Row | Structure (SMILES) | Alkaline Phosphatase Increase - Activity Score | Alkaline Phosphatase Increase - Index Value | Alkaline Phosphatase Increase - Number of Reports
1 | NCCCC(O)(P(=O)(O)O)P(=O)(O)O [ALENDRONIC ACID] | Inactive | 2.5 | >= 4
2 | Cc1nnc2n1-c1ccc(Cl)cc1C(c1ccccc1)=NC2 [ALPRAZOLAM] | Inactive | 0.4 | >= 4
3 | CCCCC[C@H](O)/C=C/[C@H]1[C@H](O)CC(=O)[C@@H]1CCCCCCC(=O)O [ALPROSTADIL] | Inactive | 0 | < 4
4 | CN(C)c1nc(N(C)C)nc(N(C)C)n1 [ALTRETAMINE] | Inactive | 18.3 | < 4
5 | CC(=O)OCC(=O)[C@@]12OC3(CCCC3)O[C@@H]1C[C@H]1[C@@H]3CCC4=CC(=O)C=C[C@]4(C)[C@@]3(F)[C@@H](O)C[C@@]12C [AMCINONIDE] | Inactive | 0 | < 4
6 | NCCCNCCSP(=O)(O)O [AMIFOSTINE] | Inactive | 0 | < 4
7 | CCC1(c2ccc(N)cc2)CCC(=O)NC1=O (stereo unspecified) [AMINOGLUTETHIMIDE] | Inactive | 0 | < 4

Tested on: Hepatotoxicity
Assay: FDA HLAED, gamma-glutamyl transferase (GGT) increase
Settings: human

Row | Structure (SMILES) | GGT Increase - Activity Score | GGT Increase - Index Value | GGT Increase - Number of Reports
8 | NCCCC(O)(P(=O)(O)O)P(=O)(O)O [ALENDRONIC ACID] | Inactive | 0.8 | >= 4
9 | Cc1nnc2n1-c1ccc(Cl)cc1C(c1ccccc1)=NC2 [ALPRAZOLAM] | Inactive | 0 | < 4
10 | CCCCC[C@H](O)/C=C/[C@H]1[C@H](O)CC(=O)[C@@H]1CCCCCCC(=O)O [ALPROSTADIL] | Inactive | 0 | < 4
11 | CN(C)c1nc(N(C)C)nc(N(C)C)n1 [ALTRETAMINE] | Inactive | 0 | < 4
12 | CC(=O)OCC(=O)[C@@]12OC3(CCCC3)O[C@@H]1C[C@H]1[C@@H]3CCC4=CC(=O)C=C[C@]4(C)[C@@]3(F)[C@@H](O)C[C@@]12C [AMCINONIDE] | Inactive | 0 | < 4
13 | NCCCNCCSP(=O)(O)O [AMIFOSTINE] | Inactive | 0 | < 4
14 | CCC1(c2ccc(N)cc2)CCC(=O)NC1=O (stereo unspecified) [AMINOGLUTETHIMIDE] | Inactive | 0 | < 4

Tested on: Hepatotoxicity
Assay: FDA HLAED, serum glutamic pyruvic transaminase (SGPT) increase
Settings: human

Row | Structure (SMILES) | SGPT Increase - Activity Score | SGPT Increase - Index Value | SGPT Increase - Number of Reports
15 | NCCCC(O)(P(=O)(O)O)P(=O)(O)O [ALENDRONIC ACID] | Inactive | 1.4 | >= 4
16 | Cc1nnc2n1-c1ccc(Cl)cc1C(c1ccccc1)=NC2 [ALPRAZOLAM] | Inactive | 0.9 | >= 4
17 | CCCCC[C@H](O)/C=C/[C@H]1[C@H](O)CC(=O)[C@@H]1CCCCCCC(=O)O [ALPROSTADIL] | Inactive | 0 | < 4
18 | CN(C)c1nc(N(C)C)nc(N(C)C)n1 [ALTRETAMINE] | Inactive | 0 | < 4
19 | CC(=O)OCC(=O)[C@@]12OC3(CCCC3)O[C@@H]1C[C@H]1[C@@H]3CCC4=CC(=O)C=C[C@]4(C)[C@@]3(F)[C@@H](O)C[C@@]12C [AMCINONIDE] | Inactive | 0 | < 4
20 | NCCCNCCSP(=O)(O)O [AMIFOSTINE] | Inactive | 0 | < 4
21 | CCC1(c2ccc(N)cc2)CCC(=O)NC1=O (stereo unspecified) [AMINOGLUTETHIMIDE] | Inactive | 0 | < 4

Tested on: Hepatotoxicity
Assay: FDA HLAED, serum glutamic oxaloacetic transaminase (SGOT) increase
Settings: human

Row | Structure (SMILES) | SGOT Increase - Activity Score | SGOT Increase - Index Value | SGOT Increase - Number of Reports
22 | NCCCC(O)(P(=O)(O)O)P(=O)(O)O [ALENDRONIC ACID] | Inactive | 1.4 | >= 4
23 | Cc1nnc2n1-c1ccc(Cl)cc1C(c1ccccc1)=NC2 [ALPRAZOLAM] | Inactive | 0.7 | >= 4
24 | CCCCC[C@H](O)/C=C/[C@H]1[C@H](O)CC(=O)[C@@H]1CCCCCCC(=O)O [ALPROSTADIL] | Inactive | 0 | < 4
25 | CN(C)c1nc(N(C)C)nc(N(C)C)n1 [ALTRETAMINE] | Inactive | 0 | < 4
26 | CC(=O)OCC(=O)[C@@]12OC3(CCCC3)O[C@@H]1C[C@H]1[C@@H]3CCC4=CC(=O)C=C[C@]4(C)[C@@]3(F)[C@@H](O)C[C@@]12C [AMCINONIDE] | Inactive | 0 | < 4
27 | NCCCNCCSP(=O)(O)O [AMIFOSTINE] | Inactive | 0 | < 4
28 | CCC1(c2ccc(N)cc2)CCC(=O)NC1=O (stereo unspecified) [AMINOGLUTETHIMIDE] | Inactive | 0 | < 4

Tested on: Hepatotoxicity
Assay: FDA HLAED, liver enzyme composite activity
Settings: human

Row | Structure (SMILES) | Composite Activity - Active | Composite Activity - Marginal | Composite Activity - Score
29 | Cc1nnc2n1-c1ccc(Cl)cc1C(c1ccccc1)=NC2 [ALPRAZOLAM] | 0 | 0 | Inactive
30 | CCCCC[C@H](O)/C=C/[C@H]1[C@H](O)CC(=O)[C@@H]1CCCCCCC(=O)O [ALPROSTADIL] | 0 | 0 | Inactive
31 | CN(C)c1nc(N(C)C)nc(N(C)C)n1 [ALTRETAMINE] | 0 | 0 | Inactive
32 | CC(=O)OCC(=O)[C@@]12OC3(CCCC3)O[C@@H]1C[C@H]1[C@@H]3CCC4=CC(=O)C=C[C@]4(C)[C@@]3(F)[C@@H](O)C[C@@]12C [AMCINONIDE] | 0 | 0 | Inactive
33 | CCC1(c2ccc(N)cc2)CCC(=O)NC1=O (stereo unspecified) [AMINOGLUTETHIMIDE] | 0 | 0 | Inactive

Same assay, conditions: human, Liver

Row | Structure (SMILES) | Composite Activity - Active | Composite Activity - Marginal | Composite Activity - Score
34 | NCCCC(O)(P(=O)(O)O)P(=O)(O)O [ALENDRONIC ACID] | 0 | 0 | Inactive
35 | NCCCNCCSP(=O)(O)O [AMIFOSTINE] | 0 | 0 | Inactive

Tested on: Hepatotoxicity
Assay: FDA HLAED, lactate dehydrogenase (LDH) increase
Settings: human

Row | Structure (SMILES) | LDH Increase - Activity Score | LDH Increase - Index Value | LDH Increase - Number of Reports
36 | NCCCC(O)(P(=O)(O)O)P(=O)(O)O [ALENDRONIC ACID] | Inactive | 1.5 | >= 4
37 | Cc1nnc2n1-c1ccc(Cl)cc1C(c1ccccc1)=NC2 [ALPRAZOLAM] | Inactive | 0.5 | >= 4
38 | CCCCC[C@H](O)/C=C/[C@H]1[C@H](O)CC(=O)[C@@H]1CCCCCCC(=O)O [ALPROSTADIL] | Inactive | 0 | < 4
39 | CN(C)c1nc(N(C)C)nc(N(C)C)n1 [ALTRETAMINE] | Inactive | 0 | < 4
40 | CC(=O)OCC(=O)[C@@]12OC3(CCCC3)O[C@@H]1C[C@H]1[C@@H]3CCC4=CC(=O)C=C[C@]4(C)[C@@]3(F)[C@@H](O)C[C@@]12C [AMCINONIDE] | Inactive | 0 | < 4
41 | NCCCNCCSP(=O)(O)O [AMIFOSTINE] | Inactive | 41.5 | < 4
42 | CCC1(c2ccc(N)cc2)CCC(=O)NC1=O (stereo unspecified) [AMINOGLUTETHIMIDE] | Inactive | 0 | < 4
